Assay results from publication PMC7822874, “Chemoprotective antimalarials identified through quantitative high-throughput screening of Plasmodium blood and liver stage parasites” (Scientific Reports, 2021).
Like-named read-outs stand apart in the source and are kept apart here.

Test system: Plasmodium falciparum Dd2 asexual blood stage parasites
Test: microbe, parasite or virus in culture
Parameters: species or system Plasmodium falciparum Dd2 in human erythrocytes; single determination (one 11-point concentration-response curve)
Settings: Plasmodium falciparum, DD2, Erythrocyte, 72 h

## CC(C(=O)NC1CCCC1)N1CCN(S(=O)(=O)c2ccc(C(C)(C)C)cc2)CC1 (stereo not drawn) [MLS002169740-01]
read-out: AC50
  AC50: 8.41 µM

## COc1cc2c(cc1OCc1cccnc1)N(C(=O)c1ccc(Oc3ccccc3)cc1)CC21CCN(CC(=O)O)CC1 [NCGC00419910-01]
read-out: AC50
  AC50: 5.96 µM

## c1ccc(-c2ccc3ncc(Nc4cccnc4)n3n2)cc1 [NCGC00412518-01]
read-out: AC50
  AC50: 4.85 µM

## CCc1c(C)c2ccc(O)c(CN3CCN(c4ccccc4)CC3)c2oc1=O [NCGC00119657-01]
read-out: AC50
  AC50: 2.37 µM

## O=C(c1ccccc1OCC1CCCN(Cc2ccncc2F)C1)N1CCCC1 (stereo not drawn) [NCGC00427122-01]
read-out: AC50
  AC50: 10.6 µM

## CCCN1CCC(NCc2cn(C)nc2-c2ccc(Oc3ccccc3)cc2)CC1 [MLS000732385-01]
read-out: AC50
  AC50: 4.73 µM

## O[C@@H]1C[C@@](CNCC2CCCC2)(COc2ccc(C(F)(F)F)cn2)C[C@@H]1O [NCGC00393440-01]
read-out: AC50
  AC50: 5.31 µM

## COc1ccc(Nc2cc(C)nc3nc(C)nn23)cc1Cl [MLS000116613-01]
read-out: AC50
  AC50: 16.8 µM

## CCOC(=O)c1c(CSC(=N)N)n(-c2ccc(C)cc2)c2cc(Br)c(OC(C)=O)cc12 [MLS001304955-01]
read-out: AC50
  AC50: 5.96 µM

## CC1CCCN(Cc2c(O)ccc3c(=O)c(-c4ccc(Cl)cc4)c(C(F)(F)F)oc23)C1 (stereo not drawn) [NCGC00100583-01]
read-out: AC50
  AC50: 0.841 µM

## COc1ccc(/C=C\c2onc(C)c2[S+](=O)([O-])N2CCC(C(=O)Nc3ccc(C)cc3C)CC2)cc1 [NCGC00109197-01]
read-out: AC50
  AC50: 0.841 µM

## OC(CNCc1cccc(Br)c1)c1ccccc1 (stereo not drawn) [MLS000676112-01]
read-out: AC50
  AC50: 5.96 µM

## CCC(C)c1ccc(N(C(=O)c2ccco2)C(C(=O)NC2CCCC2)c2cccnc2)cc1 (stereo not drawn) [MLS001222477-01]
read-out: AC50
  AC50: 6.68 µM

## O=C(Nc1ccc2n(c1=O)C[C@H]1C[C@@H]2CN(Cc2ccc(F)cc2)C1)c1cccs1 [NCGC00395674-01]
read-out: AC50
  AC50: 15.3 µM

## Cc1nn(C(=N)S)c(O)c1C(c1ccccc1)C(C#N)C#N (stereo not drawn) [MLS000077118-01]
read-out: AC50
  AC50: 6.68 µM

## CCC1=C(C(=O)OC)C(c2cccc(F)c2)N2C(CC(=O)NCCc3cccs3)=CSC2=N1 (stereo not drawn) [NCGC00473313-01]
read-out: AC50
  AC50: 9.44 µM

## C=CCOC(=O)Nc1nc2c(s1)C[C@@H]1[C@](C)(CO)[C@H](O)CC[C@@]1(C)[C@@H]2CC(=O)NC1CCCCC1 [NCGC00395650-01]
read-out: AC50
  AC50: 3.76 µM

## CC(C)(C)c1c[nH]c([C@@H]2COCCN2Cc2ccccc2O)n1 [NCGC00395090-01]
read-out: AC50
  AC50: 13.7 µM

## COc1cc(C2Nc3ccc4ccccc4c3C3=C2C(=O)CC(C)(C)C3)ccc1OC(C)C(=O)O (stereo not drawn) [MLS001197433-01]
read-out: AC50
  AC50: 6.68 µM

## O=S(=O)(c1ccc(F)cc1)N1CCN(C(S)=NC2CC2)CC1 [MLS002161026-01]
read-out: AC50
  AC50: 3.35 µM

## COc1cc2c(cc1OCc1ccccc1)NC(=O)C21CCN(c2ccccn2)CC1 [NCGC00416940-01]
read-out: AC50
  AC50: 15.3 µM

## O=C(c1nnc(CNc2ccncc2)n1-c1ccccc1)N1CCC[C@@H]1C(c1ccccc1)c1ccccc1 [NCGC00415781-01]
read-out: AC50
  AC50: 10.6 µM

## Cc1noc(C)c1-c1cc2c(cc(C)n2CCN(C)C)c(-c2cccc(O)c2)n1 [NCGC00417178-01]
read-out: AC50
  AC50: 17.2 µM

## Oc1ccc(CN2CCCCC2)nc1-c1ccccc1 [MLS000031925-01]
read-out: AC50
  AC50: 0.531 µM

## Cn1cccc1CN1C[C@@H](COc2ccncc2)[C@H](c2ccccn2)C1 [NCGC00468708-01]
read-out: AC50
  AC50: 13.3 µM

## CCOC(=O)C(C)/C(C)=N/N=C(\N)S (stereo not drawn) [MLS000701955-01]
read-out: AC50
  AC50: 2.66 µM

## COc1ccc(C2=C(C(C)=O)Sc3nnc(-c4ccc(Cl)cc4)n3N2C(C)=O)cc1OC [NCGC00137262-01]
read-out: AC50
  AC50: 3.76 µM

## Cc1cc(C)c(CNC(=O)c2cc(-c3cccnc3)cc3c2OCCN3C(C)C)c(=O)[nH]1 [NCGC00416981-01]
read-out: AC50
  AC50: 19.3 µM

## Cc1ccc([S+](=O)([O-])N2CCC3(CCN(Cc4cccs4)c4ccccc4O3)CC2)cc1 [NCGC00478057-01]
read-out: AC50
  AC50: 18.8 µM

## Cc1cn2nc(C(=O)Nc3ccc(N(C)C)cc3)cc2c(N(C)Cc2ccccc2)n1 [NCGC00454159-01]
read-out: AC50
  AC50: 15 µM

## Cc1ccccc1N(C)C1CN(Cc2ccccc2)C1 [NCGC00476681-01]
read-out: AC50
  AC50: 19.3 µM

## Cn1c2ccc(F)cc2c2nnc(SCCN3CCCCC3)nc21 [NCGC00102309-01]
read-out: AC50
  AC50: 15 µM

## Cc1nc(CN2C(=O)OC3(CCN(C(=O)c4ccc(Oc5ccccc5)cc4)CC3)C2(C)c2ccccc2)cs1 (stereo not drawn) [NCGC00415614-01]
read-out: AC50
  AC50: 13.3 µM

## CC1(c2ccccc2)N(Cc2ccccc2F)C(=O)OC12CCN(Cc1cccc(O)c1)CC2 (stereo not drawn) [NCGC00415649-01]
read-out: AC50
  AC50: 6.68 µM

## Clc1ccc2c(N3CCCC3)ccnc2c1 [MLS000049600-01]
read-out: AC50
  AC50: 3.76 µM

## CC(C)C(=O)Nc1oc(-c2ccccc2)cc1C#N [MLS000721149-01]
read-out: AC50
  AC50: 6.68 µM

## CN(C)CCN1C(=O)c2oc3ccc(Cl)cc3c(=O)c2C1c1cccc(Br)c1 (stereo not drawn) [MLS000862131-01]
read-out: AC50
  AC50: 0.531 µM

## O=c1nc(C2CCCN(CC3CCCCC3)C2)[nH]n1-c1ccc(Cl)cc1 (stereo not drawn) [NCGC00477729-01]
read-out: AC50
  AC50: 6.68 µM

## O=c1cc(-c2ccccc2)[nH]c2ccc(F)cc12 [MLS000517821-01]
read-out: AC50
  AC50: 5.96 µM

## COc1ccc(-c2c3c(nc4sc(C(=O)Nc5ccc(Cl)cc5)c(N)c24)CC(C)(C)CC3=O)cc1 [NCGC00100738-01]
read-out: AC50
  AC50: 0.376 µM

## COc1cccc(-c2cc(C(=O)Nc3ccncc3)c3ccccc3n2)c1 [MLS001125696-01]
read-out: AC50
  AC50: 6.68 µM

## COc1ccc(CN2CCC(CO)(CCCc3ccccc3)CC2)c(Cl)c1OC [NCGC00426399-01]
read-out: AC50
  AC50: 8.41 µM

## CC12CC3CC(C)(C1)CC(Nc1nc(N4CCOCC4)nc4ccccc14)(C3)C2 [MLS000332322-01]
read-out: AC50
  AC50: 9.44 µM

## COc1cc([N+](=O)[O-])ccc1NC(=O)Nc1nc2c(s1)CCCC2 [MLS000581295-01]
read-out: AC50
  AC50: 6.68 µM

## COc1cccc(C(=O)N2CCC(N3C[C@H](O)C[C@H]3C(=O)N3CCc4ccccc4C3)CC2)c1 [NCGC00460061-01]
read-out: AC50
  AC50: 8.41 µM

## CCO[C@@H]1OC(C(=O)N2CCN(Cc3ccc4c(c3)OCO4)CC2)=C[C@H](c2cn(C(C)=O)c3ccccc23)[C@H]1CCCO [MLS000834519-01]
read-out: AC50
  AC50: 9.44 µM

## CC(C(=O)c1c[nH]c2ccccc12)N1CCN(C(=O)c2ccco2)CC1 (stereo not drawn) [MLS000768379-01]
  AC50: 5.96 µM

## COc1cc(C#Cc2c(-c3cncn3C)n(C)c3ccc(-c4ccc(OC)c(OC)c4)cc23)cc(OC)c1 [MLS002391599-01]
read-out: AC50
  AC50: 4.73 µM

## CCC(CC)c1cc([C@H]2CN3CC[C@H]2C[C@@H]3CNC(=O)NCc2ccccc2)nc(-c2ccncc2)n1 [NCGC00400244-01]
read-out: AC50
  AC50: 4.22 µM

## CC(C)c1cc(C(=O)Nc2cc(Cl)ccc2O)no1 [MLS000087324-01]
read-out: AC50
  AC50: 6.68 µM

## O=[N+]([O-])c1ccc(N2CCN(/C(S)=N/C3CCCCC3)CC2)cc1 [MLS000574247-01]
read-out: AC50
  AC50: 1.88 µM

## Cc1nn(-c2ccccc2)c2c1C(c1cccnc1)N1C=C(S(=O)(=O)N3CCCCC3)C=CC1=N2 (stereo not drawn) [MLS000863363-01]
read-out: AC50
  AC50: 15 µM

## CC(C)NC(=O)OC[C@H]1C[C@@H]2CCN1C[C@@H]2c1cc(-c2ccc(F)cc2)nn1C [NCGC00399718-01]
read-out: AC50
  AC50: 13.7 µM

## COc1ccc2cc1Nc1ccc(cc1)C[C@H](NCc1ccc(C)o1)C(=O)N(C)[C@@H](C(=O)NCc1ccccc1)C2 [NCGC00410280-01]
read-out: AC50
  AC50: 5.31 µM

## Cc1ccccc1-c1nccn2c(C3CN(Cc4ccccc4O)C3)ncc12 [NCGC00414046-01]
read-out: AC50
  AC50: 5.44 µM

## Cc1ccc(C(=O)N2CCC(c3c[nH]c4ccccc34)(c3c[nH]c4ccccc34)CC2)cc1 [NCGC00113768-01]
read-out: AC50
  AC50: 8.41 µM

## COc1ccc(-c2nc3sc(CCNC(=O)c4ccc(C(C)(C)C)cc4)c(C)n3n2)cc1 [NCGC00137079-01]
read-out: AC50
  AC50: 2.11 µM
